# Data as given in patent publication US9113629B2, “4-amino-6-(4-substituted-phenyl)-picolinates and 6-amino-2-(4-substituted-phenyl)-pyrimidine-4-carboxylates and their use as herbicides” (DOW AGROSCIENCES LLC, priority 2013, dated 2015).
# Tested on: KCHSC: kochia (Kochia scoparia)
# Experiment: Post-emergent Test III, herbicidal activity in wheat and barley
# Format: in vivo
# Conditions: Bassia scoparia, post-emergence, 504 h; 35 g ai/ha; read-out: Visual Growth Reduction (%) 21 Days After Application KCHSC
# Outline: (§1)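 GR20, GR50, GR80 and GR90 come from probit analysis of visual injury scores (0 = none, 100 = complete kill) taken 21 d after treatment. Foliar application was by track sprayer delivering 187 L/ha at five rates, from high down to 1/16×, onto greenhouse plants at the 2–3 leaf stage, with solvent-blank controls.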
row,Compound,pest or weed control at 35 g/ha
1,COC(=O)c1nc(-c2ccc(C#N)cc2)c(F)c(N)c1Cl [Compound 142],45 to 59%

# Same assay, conditions: Bassia scoparia, post-emergence, 504 h; 70 g ai/ha; read-out: Visual Growth Reduction (%) 21 Days After Application KCHSC
row,Compound,pest or weed control at 70 g/ha
1,COC(=O)c1nc(-c2ccc(C#N)cc2)c(F)c(N)c1Cl [Compound 142],60 to 74%

# Same assay, conditions: Bassia scoparia, post-emergence, 504 h; 140 g ai/ha; read-out: Visual Growth Reduction (%) 21 Days After Application KCHSC
row,Compound,pest or weed control at 140 g/ha
1,COC(=O)c1nc(-c2ccc(C#N)cc2)c(F)c(N)c1Cl [Compound 142],60 to 74%

# Same assay, conditions: probit analysis, dose for growth reduction of 50 percent, 21 days after application
row,Compound,GR50 KCHSC
1,COC(=O)c1nc(-c2ccc(C#N)cc2)c(F)c(N)c1Cl [Compound 142],17 g ai/ha

# Same assay, conditions: probit analysis, dose for growth reduction of 80 percent, 21 days after application
row,Compound,GR80 KCHSC
1,COC(=O)c1nc(-c2ccc(C#N)cc2)c(F)c(N)c1Cl [Compound 142],>140 g ai/ha

# Tested on: TRZSS: wheat, including spring and winter (Triticum aestivum)
# Experiment: as above
# Format: in vivo
# Conditions: Triticum aestivum, post-emergence, 504 h; 35 g ai/ha; read-out: Visual Growth Reduction (%) 21 Days After Application TRZSS
# Outline: as §1
row,Compound,pest or weed control at 35 g/ha
1,COC(=O)c1nc(-c2ccc(C#N)cc2)c(F)c(N)c1Cl [Compound 142],0 to 29%

# Same assay, conditions: Triticum aestivum, post-emergence, 504 h; 70 g ai/ha; read-out: Visual Growth Reduction (%) 21 Days After Application TRZSS
row,Compound,pest or weed control at 70 g/ha
1,COC(=O)c1nc(-c2ccc(C#N)cc2)c(F)c(N)c1Cl [Compound 142],0 to 29%

# Same assay, conditions: Triticum aestivum, post-emergence, 504 h; 140 g ai/ha; read-out: Visual Growth Reduction (%) 21 Days After Application TRZSS
row,Compound,pest or weed control at 140 g/ha
1,COC(=O)c1nc(-c2ccc(C#N)cc2)c(F)c(N)c1Cl [Compound 142],45 to 59%

# Same assay, conditions: probit analysis, dose for growth reduction of 20 percent, 21 days after application; crop
row,Compound,GR20 TRZSS
1,COC(=O)c1nc(-c2ccc(C#N)cc2)c(F)c(N)c1Cl [Compound 142],>140 g ai/ha

# Tested on: HORSS: barley, including spring and winter (Hordeum vulgare)
# Experiment: as above
# Format: in vivo
# Conditions: Hordeum vulgare, post-emergence, 504 h; 35 g ai/ha; read-out: Visual Growth Reduction (%) 21 Days After Application HORSS
# Outline: as §1
row,Compound,pest or weed control at 35 g/ha
1,COC(=O)c1nc(-c2ccc(C#N)cc2)c(F)c(N)c1Cl [Compound 142],0 to 29%

# Same assay, conditions: Hordeum vulgare, post-emergence, 504 h; 70 g ai/ha; read-out: Visual Growth Reduction (%) 21 Days After Application HORSS
row,Compound,pest or weed control at 70 g/ha
1,COC(=O)c1nc(-c2ccc(C#N)cc2)c(F)c(N)c1Cl [Compound 142],0 to 29%

# Same assay, conditions: Hordeum vulgare, post-emergence, 504 h; 140 g ai/ha; read-out: Visual Growth Reduction (%) 21 Days After Application HORSS
row,Compound,pest or weed control at 140 g/ha
1,COC(=O)c1nc(-c2ccc(C#N)cc2)c(F)c(N)c1Cl [Compound 142],0 to 29%

# Same assay, conditions: probit analysis, dose for growth reduction of 20 percent, 21 days after application; crop
row,Compound,GR20 HORSS
1,COC(=O)c1nc(-c2ccc(C#N)cc2)c(F)c(N)c1Cl [Compound 142],57 g ai/ha

# Tested on: APESV: bentgrass (Apera spica-venti)
# Experiment: as above
# Format: in vivo
# Conditions: Apera spica-venti, post-emergence, 504 h; 35 g ai/ha; read-out: Visual Growth Reduction (%) 21 Days After Application APESV
# Outline: as §1
row,Compound,pest or weed control at 35 g/ha
1,COC(=O)c1nc(-c2ccc(C#N)cc2)c(F)c(N)c1Cl [Compound 142],0 to 29%

# Same assay, conditions: Apera spica-venti, post-emergence, 504 h; 70 g ai/ha; read-out: Visual Growth Reduction (%) 21 Days After Application APESV
row,Compound,pest or weed control at 70 g/ha
1,COC(=O)c1nc(-c2ccc(C#N)cc2)c(F)c(N)c1Cl [Compound 142],0 to 29%

# Same assay, conditions: Apera spica-venti, post-emergence, 504 h; 140 g ai/ha; read-out: Visual Growth Reduction (%) 21 Days After Application APESV
row,Compound,pest or weed control at 140 g/ha
1,COC(=O)c1nc(-c2ccc(C#N)cc2)c(F)c(N)c1Cl [Compound 142],0 to 29%

# Same assay, conditions: probit analysis, dose for growth reduction of 50 percent, 21 days after application
row,Compound,GR50 APESV
1,COC(=O)c1nc(-c2ccc(C#N)cc2)c(F)c(N)c1Cl [Compound 142],>140 g ai/ha

# Same assay, conditions: probit analysis, dose for growth reduction of 80 percent, 21 days after application
row,Compound,GR80 APESV
1,COC(=O)c1nc(-c2ccc(C#N)cc2)c(F)c(N)c1Cl [Compound 142],>140 g ai/ha

# Tested on: MATSS: scented mayweed (Matricaria chamomilla), pineappleweed (Matricaria matricarioides)
# Experiment: as above
# Format: in vivo
# Conditions: Matricaria chamomilla, post-emergence, 504 h; 35 g ai/ha; read-out: Visual Growth Reduction (%) 21 Days After Application MATSS
# Outline: as §1
row,Compound,pest or weed control at 35 g/ha
1,COC(=O)c1nc(-c2ccc(C#N)cc2)c(F)c(N)c1Cl [Compound 142],0 to 29%

# Same assay, conditions: Matricaria chamomilla, post-emergence, 504 h; 70 g ai/ha; read-out: Visual Growth Reduction (%) 21 Days After Application MATSS
row,Compound,pest or weed control at 70 g/ha
1,COC(=O)c1nc(-c2ccc(C#N)cc2)c(F)c(N)c1Cl [Compound 142],0 to 29%

# Same assay, conditions: Matricaria chamomilla, post-emergence, 504 h; 140 g ai/ha; read-out: Visual Growth Reduction (%) 21 Days After Application MATSS
row,Compound,pest or weed control at 140 g/ha
1,COC(=O)c1nc(-c2ccc(C#N)cc2)c(F)c(N)c1Cl [Compound 142],30 to 44%

# Same assay, conditions: probit analysis, dose for growth reduction of 50 percent, 21 days after application
row,Compound,GR50 MATSS
1,COC(=O)c1nc(-c2ccc(C#N)cc2)c(F)c(N)c1Cl [Compound 142],>140 g ai/ha

# Same assay, conditions: probit analysis, dose for growth reduction of 80 percent, 21 days after application
row,Compound,GR80 MATSS
1,COC(=O)c1nc(-c2ccc(C#N)cc2)c(F)c(N)c1Cl [Compound 142],>140 g ai/ha

# Tested on: SETVI: green foxtail (Setaria viridis)
# Experiment: as above
# Format: in vivo
# Conditions: Setaria viridis, post-emergence, 504 h; 35 g ai/ha; read-out: Visual Growth Reduction (%) 21 Days After Application SETVI
# Outline: as §1
row,Compound,pest or weed control at 35 g/ha
1,COC(=O)c1nc(-c2ccc(C#N)cc2)c(F)c(N)c1Cl [Compound 142],0 to 29%

# Same assay, conditions: Setaria viridis, post-emergence, 504 h; 70 g ai/ha; read-out: Visual Growth Reduction (%) 21 Days After Application SETVI
row,Compound,pest or weed control at 70 g/ha
1,COC(=O)c1nc(-c2ccc(C#N)cc2)c(F)c(N)c1Cl [Compound 142],0 to 29%

# Same assay, conditions: Setaria viridis, post-emergence, 504 h; 140 g ai/ha; read-out: Visual Growth Reduction (%) 21 Days After Application SETVI
row,Compound,pest or weed control at 140 g/ha
1,COC(=O)c1nc(-c2ccc(C#N)cc2)c(F)c(N)c1Cl [Compound 142],0 to 29%

# Same assay, conditions: probit analysis, dose for growth reduction of 50 percent, 21 days after application
row,Compound,GR50 SETVI
1,COC(=O)c1nc(-c2ccc(C#N)cc2)c(F)c(N)c1Cl [Compound 142],>140 g ai/ha

# Same assay, conditions: probit analysis, dose for growth reduction of 80 percent, 21 days after application
row,Compound,GR80 SETVI
1,COC(=O)c1nc(-c2ccc(C#N)cc2)c(F)c(N)c1Cl [Compound 142],>140 g ai/ha

# Tested on: LOLSS: ryegrass including, Italian ryegrass (Lolium multiflorum), rigid ryegrass (Lolium rigidum), annual ryegrass (Lolium multiflorum subsp. Gaudini)
# Experiment: as above
# Format: in vivo
# Conditions: probit analysis, dose for growth reduction of 50 percent, 21 days after application
# Outline: as §1
row,Compound,GR50 LOLSS
1,COC(=O)c1nc(-c2ccc(C#N)cc2)c(F)c(N)c1Cl [Compound 142],>140 g ai/ha

# Same assay, conditions: probit analysis, dose for growth reduction of 80 percent, 21 days after application
row,Compound,GR80 LOLSS
1,COC(=O)c1nc(-c2ccc(C#N)cc2)c(F)c(N)c1Cl [Compound 142],>140 g ai/ha

# Tested on: not listed separately
# Experiment: as above
# Format: in vivo, Lolium multiflorum, Lolium rigidum
# Conditions: Lolium multiflorum, post-emergence, 504 h; 35 g ai/ha; read-out: Visual Growth Reduction (%) 21 Days After Application LOLSS
# Outline: as §1
row,Compound,pest or weed control at 35 g/ha
1,COC(=O)c1nc(-c2ccc(C#N)cc2)c(F)c(N)c1Cl [Compound 142],0 to 29%

# Same assay, conditions: Lolium multiflorum, post-emergence, 504 h; 70 g ai/ha; read-out: Visual Growth Reduction (%) 21 Days After Application LOLSS
row,Compound,pest or weed control at 70 g/ha
1,COC(=O)c1nc(-c2ccc(C#N)cc2)c(F)c(N)c1Cl [Compound 142],0 to 29%

# Same assay, conditions: Lolium multiflorum, post-emergence, 504 h; 140 g ai/ha; read-out: Visual Growth Reduction (%) 21 Days After Application LOLSS
row,Compound,pest or weed control at 140 g/ha
1,COC(=O)c1nc(-c2ccc(C#N)cc2)c(F)c(N)c1Cl [Compound 142],0 to 29%
